We go through one molecule from patent US20210205292A1, “INHIBITORS OF CREB-CBP INTERACTION FOR TREATMENT OF LEUKEMIA” (The Board of Trustees of the Leland Stanford Junior …, priority 2016, published 2021).

The test system of series [1] is human AML patient sample cells (#186). In words: Primary AML patient sample (#186) xenograft in NSG mice. Conditions: 2.3 mg/kg IV once daily. It counts as in vivo. On the procedure: For AML xenograft mouse experiments, HL-60 cells (2×10^6) expressing firefly luciferase and GFP, or cryopreserved human AML patient cells (5×10^6), were injected through the tail vein into NOD.Cg-prkdc^scid Il2rg^tm1WjlSzJ (NSG) mice. Mice were then Compound A or 10% DMSO, injected intravenously by tail vein daily, until death or an endpoint was reached (moribundity) in accordance with the animal care institutional guidelines. All mouse experiments were subject to institutional approval by Stanford University Institutional Animal Care and Use Committee. Leukemia progression in mice at the indicated time points was monitored using an in vivo IVIS 100 bioluminescenceoptical imaging system (Xenogen Corporation). D-Luciferin (Promega) dissolved in sterile phosphate-buffered saline was injected intraperitoneally at a dose of […], 15 minutes before measuring the luminescent signal. General anesthesia was induced with […] and continued during the procedure using a nose cone. […]
To examine the efficacy of CREB inhibition in an in vivo model of AML, 4-6 week old NOD.Cg-Prkdc^scid Il2rg^tm1WjlSzJ (NSG) mice were tail-vein injected with HL-60 AML cells (2×10^6) expressing Firefly luciferase and GFP. […] The efficacy of Compound A was also assessed in a mouse xenograft model using primary AML cell sample (patient sample #186), using similar methods.
For orientation: In xenograft studies the graft and the host belong to different species.

For series [2], the target named is T1, KIX domain of CBP, mutant lacking amino acids 586-602 (GST fusion) (Homo sapiens, UniProt Q92793).
T1 construct: spans CBP amino acids 586-666; made in house; host or cells: E. coli BL21(DE3)
T1 sequence (Q92793 with tags, fused parts or gaps, change not shown): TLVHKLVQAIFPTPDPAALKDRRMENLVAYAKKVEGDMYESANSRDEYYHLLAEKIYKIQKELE
In words: Biacore surface plasmon resonance, binding to KIX deletion mutant versus native KIX. The following applies: 5 μM. The procedure:
(§1) KIX domain mutants were created by standard cloning and mutagenesis methods in the pGEX4T3 vector (GE Healthcare Life Sciences). GST-KIX fusion proteins were expressed in BL21(DE3-) cells (New England Biolabs) following induction with 1 mM IPTG for 6 hours at 37 degrees. GST-KIX and its mutants were purified with the B-PER GST Fusion Protein Spin Purification Kit (Thermo Scientific/Pierce). Surface Plasmon Resonance (Biacore) analysis was performed on a GE Biacore 3000 surface plasmon resonance instrument in collaboration with the Stanford Protein and Nucleic Acid (PAN) Facility.
(§2) To confirm the binding of Compound A to the KIX domain of CBP, the KIX domain was expressed and purified as a fusion protein with Glutathione-S-Transferase (GST). Binding of Compound A to the KIX domain and two KIX domain mutants in which residues critical for CREB binding were altered or removed (Arg-600 mutated to Alanine or deletion of amino acids 586-602) was determined by Surface Plasmon Resonance (Biacore) analysis (FIG. 1, panel B). Mutation of Arginine-600 to Alanine reduced binding of Compound A by ˜45%, while a KIX domain mutant lacking amino acids 586-602 reduced binding by ˜70%. […] A hypothetical binding model between Compound A and CBP KIX domain is shown (FIG. 1, panel C). […]

The target in a further series is T2, CREB/CBP association (Homo sapiens, UniProt Q92793).
T2 construct: endogenous in cells; host or cells: HEK293 cells (CBP endogenous; CREB from a transfected plasmid)
T2 sequence (Q92793 whole entry): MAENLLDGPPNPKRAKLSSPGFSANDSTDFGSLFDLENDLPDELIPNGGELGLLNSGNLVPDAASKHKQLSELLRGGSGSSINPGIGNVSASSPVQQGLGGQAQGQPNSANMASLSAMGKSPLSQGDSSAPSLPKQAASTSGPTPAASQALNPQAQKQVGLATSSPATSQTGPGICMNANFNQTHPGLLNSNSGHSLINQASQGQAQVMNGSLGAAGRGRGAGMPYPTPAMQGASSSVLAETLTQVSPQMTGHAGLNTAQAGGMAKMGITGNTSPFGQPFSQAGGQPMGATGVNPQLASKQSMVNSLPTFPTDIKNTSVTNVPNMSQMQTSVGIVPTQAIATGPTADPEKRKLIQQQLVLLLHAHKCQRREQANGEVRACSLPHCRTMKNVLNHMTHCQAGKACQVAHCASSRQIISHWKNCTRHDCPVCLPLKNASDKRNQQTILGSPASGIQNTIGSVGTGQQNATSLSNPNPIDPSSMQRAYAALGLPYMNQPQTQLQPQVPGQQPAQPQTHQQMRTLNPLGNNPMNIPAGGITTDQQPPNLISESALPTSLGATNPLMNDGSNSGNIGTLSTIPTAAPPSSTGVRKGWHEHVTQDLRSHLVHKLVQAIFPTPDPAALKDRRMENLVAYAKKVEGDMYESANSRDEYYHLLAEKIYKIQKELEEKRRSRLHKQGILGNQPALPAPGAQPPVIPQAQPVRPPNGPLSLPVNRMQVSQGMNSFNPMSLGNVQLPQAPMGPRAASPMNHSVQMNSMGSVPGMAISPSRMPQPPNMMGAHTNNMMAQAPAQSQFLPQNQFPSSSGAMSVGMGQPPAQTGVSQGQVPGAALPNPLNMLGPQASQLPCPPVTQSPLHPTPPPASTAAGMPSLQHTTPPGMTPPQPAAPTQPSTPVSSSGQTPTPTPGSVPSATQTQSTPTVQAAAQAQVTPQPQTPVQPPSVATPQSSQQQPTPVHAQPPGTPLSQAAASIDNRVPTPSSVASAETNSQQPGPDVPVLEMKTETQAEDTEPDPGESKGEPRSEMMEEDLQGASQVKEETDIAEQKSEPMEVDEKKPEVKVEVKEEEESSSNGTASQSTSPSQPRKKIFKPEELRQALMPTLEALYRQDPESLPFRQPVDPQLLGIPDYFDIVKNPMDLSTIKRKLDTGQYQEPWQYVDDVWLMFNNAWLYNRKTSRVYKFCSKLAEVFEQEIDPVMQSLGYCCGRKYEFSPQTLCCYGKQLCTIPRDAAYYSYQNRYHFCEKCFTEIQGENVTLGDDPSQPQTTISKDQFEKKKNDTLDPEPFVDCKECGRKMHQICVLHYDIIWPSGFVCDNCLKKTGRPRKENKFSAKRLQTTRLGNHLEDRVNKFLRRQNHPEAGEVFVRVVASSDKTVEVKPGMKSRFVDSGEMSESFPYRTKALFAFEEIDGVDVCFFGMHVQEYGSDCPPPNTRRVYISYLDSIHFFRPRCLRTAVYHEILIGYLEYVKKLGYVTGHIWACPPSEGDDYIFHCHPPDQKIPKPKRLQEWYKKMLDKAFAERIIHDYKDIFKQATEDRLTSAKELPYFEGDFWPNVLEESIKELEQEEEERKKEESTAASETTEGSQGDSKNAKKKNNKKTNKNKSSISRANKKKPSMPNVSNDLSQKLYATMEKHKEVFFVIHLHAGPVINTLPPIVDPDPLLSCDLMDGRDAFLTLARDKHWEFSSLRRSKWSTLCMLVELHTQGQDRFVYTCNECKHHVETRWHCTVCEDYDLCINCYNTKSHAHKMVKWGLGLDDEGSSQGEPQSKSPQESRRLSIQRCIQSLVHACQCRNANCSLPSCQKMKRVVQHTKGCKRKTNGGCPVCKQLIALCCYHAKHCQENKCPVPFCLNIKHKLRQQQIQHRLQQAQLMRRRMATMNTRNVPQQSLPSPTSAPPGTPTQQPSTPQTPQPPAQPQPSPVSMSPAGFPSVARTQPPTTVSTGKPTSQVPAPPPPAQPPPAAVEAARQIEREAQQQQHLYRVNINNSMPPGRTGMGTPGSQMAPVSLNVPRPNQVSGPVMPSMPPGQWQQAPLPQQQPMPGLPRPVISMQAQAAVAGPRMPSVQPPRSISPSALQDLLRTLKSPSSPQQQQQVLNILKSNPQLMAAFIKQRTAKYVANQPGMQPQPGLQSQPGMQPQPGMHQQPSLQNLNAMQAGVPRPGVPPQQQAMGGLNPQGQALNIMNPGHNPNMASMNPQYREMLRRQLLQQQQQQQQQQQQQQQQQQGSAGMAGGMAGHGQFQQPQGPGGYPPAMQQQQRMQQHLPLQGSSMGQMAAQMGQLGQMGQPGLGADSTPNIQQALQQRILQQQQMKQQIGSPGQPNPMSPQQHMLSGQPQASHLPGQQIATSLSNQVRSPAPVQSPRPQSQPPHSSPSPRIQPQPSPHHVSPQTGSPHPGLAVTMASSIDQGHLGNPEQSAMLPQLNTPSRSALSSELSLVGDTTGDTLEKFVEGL
In words: Anti-CBP immunoprecipitation of CREB-transfected HEK293 cells. It counts as cell-based. Conditions: HEK293 lysates or cells, 5 μM, 1 hour. The procedure: Mutation of Arginine-600 to Alanine reduced binding of Compound A by ˜45% at a concentration of 5 μM, while a KIX mutant lacking amino acids 586-602 reduced binding by ˜70%. Panel C) Binding model of Compound A to CBP KIX domain. […] Panel E). Two KG-1 cell lines were generated in which luciferase was expressed either under the control of a CREB-driven promoter (CRE) or a CMV-driven promoter (CMV). These two cell lines were each treated with a range of Compound A or Analog B concentrations for 6 hours. […] HEK293 cells were transfected with a plasmid expressing CREB. Cells were treated with Compound A (A, 5 μM, lane 3) or DMSO vehicle (D) for 1 hour. Total lysates of transfected HEK293 cells were immunoprecipitated using anti-CBP antibody. Compound A (A, 5 μM) was added during anti-CBP Immunoprecipation process (lane 1). Immunoprecipitates (CBP-IP) and total lysates were analyzed by immunoblotting for phospho-CREB (p-CREB) and CBP.
To test the ability of Compound A to disrupt CREB-CBP binding in cells, a split Renilla luciferase complementation assay was performed. […] This early timepoint was selected to permit accurate reporter gene activity measurement prior to the onset of anticipated global cell dysfunction or death induced by Compound A. Treatment with 3 μM Compound A reduced luciferase activity by 33.2±7.7% at this timepoint. […]

For series [3], the target named is T3, KIX domain of CBP, Arginine-600 to Alanine mutant (GST fusion) (Homo sapiens, UniProt Q92793, R601A).
T3 construct: spans CBP amino acids 586-666; made in house; host or cells: E. coli BL21(DE3)
T3 sequence (Q92793 586-666 R601A): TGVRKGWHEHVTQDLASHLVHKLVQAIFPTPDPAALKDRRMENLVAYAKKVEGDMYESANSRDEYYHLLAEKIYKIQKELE
The series is described as follows: Biacore surface plasmon resonance, binding to KIX Arg-600-Ala mutant versus native KIX. The following applies: 5 μM. The procedure:
as §1, §2
For orientation: In SPR one partner is held on a chip, and binding of the other changes the refractive index at the surface.

Structures are written as SMILES. “Also recorded” adds a separate entry of the source.

As to `N#Cc1ccc(NC(=O)c2cc3ccccc3cc2O)cc1` [Compound A, N-(4-cyanophenyl)-3-hydroxy-2-naphthamide], the toxicity result in series [1] (80 days) is reported as “None of the mice treated for 80 days experienced any toxicity”. In series [1] (versus DMSO-treated mice), the “survival (Kaplan-Meier)” value is given as “significant survival advantage”. Further, in series [2], the “reduction of binding of Compound A by KIX mutant lacking amino acids 586-602” value is recorded as around 70%. The “binding of CREB to CBP (immunoprecipitation)” value on CREB/CBP association was “inhibits CREB/CBP association; also recorded: prevented binding of CREB to CBP”. The “reduction of binding of Compound A by mutation of Arginine-600 to Alanine” value in series [3] was around 45%.
